Assays:
[1] = Blood-to-brain transport, multiple time regression (MTR) analysis in mice
Protocol: Seven-to-ten-week-old female, Institute for Cancer Research, Caesarean Derived-1 (ICR-CD-1) mice (Harlan Laboratories, Venray, Netherlands) weighing 29–32 g were used for the BBB transport experiments. The experiments were performed according to the Ethical Committee principles of laboratory animal welfare as approved by Ghent University (Faculty of Veterinary Medicine, number EC2014/128).
An in vivo multiple time regression (MTR) analysis was performed in order to determine whether pellitorine could enter the brain. A dose solution of 1.8 mg/mL pure pellitorine dissolved in 6.9% EtOH, 2.5% dimethylacetamide, and 0.5% tween 80 (all w/w) diluted in lactated Ringer's solution containing 1% BSA was prepared. After anesthetizing the mice intraperitoneally with a 40% (w/V) urethane solution (3 g/kg), the jugular internalis vein and carotid artery were isolated and 20 μL of the pellitorine dose solution was injected into the jugular vein. After 1, 3, 5, 10, 12.5, and 15 min after injection (with start and end in duplicate), blood was collected from the carotid artery. Immediately thereafter, the mice were decapitated and the brains were isolated. […] The serum concentrations of pellitorine were plotted against the time (expressed in min). The curve was fitted using a first-order kinetic, two-compartment model: C(t) = C 1 × e ^−α×t + C 2 × e ^−β×t, in which C is the concentration of pellitorine in serum at time t, α and β are hybrid constants, dependent on the rate constants k e (elimination rate constant), k 1,2 (rate constant between central and peripheral tissue compartment), k 2,1 (rate constant between peripheral tissue and central compartment), C 1 is the concentration obtained after extrapolation of the distribution phase α to the y-axis, and C 2 is the concentration obtained after extrapolation of the elimination phase β to the y-axis. The ratio of the pellitorine brain and serum concentration (μL/g) was plotted versus the exposure time (θ), which is a derived time variable of the Gjedde-Patlak plot, to determine the BBB influx kinetics of pellitorine.
The exposure time is computed as θ = ∫0 ^T((C s(t) · dt)/C s(T)) and is defined as the integral of the concentration of pellitorine in serum from start (t = 0 min) to time T, divided by the concentration of pellitorine in serum at time T. The integral of the concentration of pellitorine in serum from zero to time T is the area under the curve until time T.
The brain uptake of pellitorine was fitted using a biphasic model, as elaborated by Wong et al.: (4) CbrainT/CsTK·θ+Vg·1−e^−θ·K1−K/Vg+V0≅K=0Vg·1−e^−θ·K1/Vg+V0 in which C brain(T) is the concentration of pellitorine in the brain at time T (ng/g), C s(T) the concentration of pellitorine in serum at time T (ng/μL), K the net clearance (μL/(g·min)), V g the tissue brain distribution volume (μL/g), K 1 the unidirectional clearance from pellitorine from blood to brain (i.e., the unidirectional brain transfer coefficient, also referred to as influx rate) (μL/(g·min)), and V 0 the vascular brain distribution volume (μL/g).

[2] = parameters: method as in PMID 24055064; details: cited from earlier work
[3] = female, ICR-CD-1, mouse, serum, iv, 36 μg/mouse
[4] = mice, intravenous, two-compartment model

SMILES: CCCCC/C=C/C=C/C(=O)NCC(C)C [pellitorine, deca-2E,4E-dienoic acid isobutylamide]
- Kp ([1]; female, ICR-CD-1, mouse, brain (relative to serum), iv, 36 μg/mouse): 0.792
- half-life [1, 3]: 4.48 min
- k el [1, 3]: 0.0025 s⁻¹
- unidirectional influx rate K 1 ([1]; mice, injection into jugular vein, MTR): 153 µL/g/min
- tissue brain distribution volume (V g) ([1]; mice, intravenous, biphasic model): 792 µL/g
- C 1 (serum, extrapolation of distribution phase) [1, 4]: 7.02 µg/mL
- C 2 (serum, extrapolation of elimination phase) [1, 4]: 0.44 µg/mL
- distribution rate constant α ([1]; mouse serum, intravenous, two-compartment model): 1.56 min⁻¹
- toxicity during the experiment ([1]; mouse, in vivo, iv): no toxicity was observed
- log P [2]: 3.65
